Entries after “also recorded” stand apart in the source; their conditions may differ.
Assays:
[1] = test system: HL 60 cells; experiment: differentiation induction of HL 60 cells to macrophages (NBT reduction); format: cell-based, human; conditions: relative to calcitriol; 96 hours incubation
Protocol: The differentiation-stimulating action of calcitriol analogs is also detected quantitatively.
It is known in the literature [D. J. Mangelsdorf et al., J. Cell. Biol. 98, 391 (1984)] that the treatment of human leukemia cells (promyelocyte cell line HL 60) in vitro with calcitriol induces the differentiation of cells to macrophages.
HL 60 cells are cultivated in tissue culture medium (RPMI 10% fetal calf serum) at 37° C. in an atmosphere of 5% CO2 in air.
For substance testing, the cells are centrifuged off, and 2.0×10^5 cells/ml in phenol red-free tissue culture medium are taken up. The test substances are dissolved in ethanol and diluted to the desired concentration with tissue culture medium without phenol red. The dilution stages are mixed with the cell suspension at a ratio of 1:10, and 100 il each of this cell suspension that is mixed with substance is pipetted into an indentation of a 96-hole plate. For control, a cell suspension is mixed analogously with the solvent.
After incubation for 96 hours at 37° C. in 5% CO2 in air, 100 il of an NBT-TPA solution (nitro blue tetrazolium (NBT), final concentration in the batch of 1 mg/ml, tetradecanoyl phorbolmyristate-13-acetate (TPA), final concentration in the batch of 2×10^−7 mol/l) is pipetted into each indentation of the 96-hole plate in the cell suspension.
By incubation for 2 hours at 37° C. and 5% CO2 in air, NBT is reduced to insoluble formazan because of the intracellular oxygen radical release, stimulated by TPA, in the cells that are differentiated to macrophages.
To complete the reaction, the indentations of the 96-hole plate are suctioned off, and the cells are affixed to the bottom of the plate by adding methanol and dried after affixing. To dissolve the intracellular formazan crystals that are formed, 100 il of potassium hydroxide (2 mol/l) and 100 il of dimethyl sulfoxide are pipetted into each indentation and ultrasonically treated for 1 minute. The concentration of formazan is measured by spectrophotometry at 650 nm.
As a yardstick for the differentiation induction of HL 60 cells to macrophages, the concentration of formed formazan applies.

[2] = acute hypercalcemic action in rats (serum calcium after one-time subcutaneous administration); format: in vivo, rat; conditions: relative to calcitriol, male rats
Protocol: To determine the acute hypercalcemic action of various calcitriol derivatives, the test that is described below is carried out:
The action of control (solution base), reference substance (1,25-dihydroxy vitamin D3=calcitriol) and test substance is tested in each case after one-time subcutaneous administration in groups of 10 healthy male rats (140-170 g). During the testing time, the rats are kept in special cages to determine the excretion of water and mineral substances. Urine is collected in 2 fractions (0-16 hours and 16-22 hours). An oral dose of calcium (0.1 mmol of calcium in 6.5% alpha-hydroxypropyl cellulose, 5 ml/animal) replaces at 1600 hours the calcium intake that is lacking by food deprivation. At the end of the test, the animals are sacrificed by decapitation and exsanguinated to determine the serum-calcium values. For the primary screening test in vivo, an individual standard dose (200 ig/kg) is tested. For selected substances, the result is supported by establishing a dose-effect relation.
A hypercalcemic action is shown in serum-calcium level values that are higher than in the control.
The significance of differences occurring between substance groups and controls as well as between test substance and reference substance are supported with suitable statistical processes.

[3] = DNFB-induced allergic contact allergy in the mouse (DNFB-DTH); format: in vivo; conditions: for activity in vivo (prevention of the formation of edemas): contact allergy in the mouse; for DR (Hypercalcemic threshold dose/ immunosuppressive threshold dose): therapeutic range, mouse, once daily intragastrically around sensitization, calcium level in urine as side-effect parameter
Source text: 58, 179-204 (1999)]. The model of the dinitrofluorobenzene (DNFB)-induced allergic contact allergy in the mouse represents an inflammatory skin disease with the background of an inflammatory reaction of the delayed type (delayed type hypersensitivity; DTH). The inflammatory phase of the contact allergy is triggered by a multi-phase reaction. A repeated contact with the topically effective contact allergen DNFB (25 il of a 0.5% (w/v) DNFB solution in acetone/olive oil 4:1 [v/v] on the shaved abdomen with a surface area of about 10 cm^2 on test days 0. and 1.) triggers an immune reaction, which results in the sensitization of the animals against the specific agent, without “visible” symptoms occurring. Only after a sensitization time of 4-5 days, in which populations of DNFB-specific lymphocytes of “memory” type have formed in the draining lymph nodes, can a renewed contact (20 il of a 0.5% (w/v) DNFB solution in acetone/olive oil 4:1 [v/v]) trigger an inflammatory skin reaction with the contact allergen at any skin area (here: on both ears, treated surface area/ear about 2 cm^2). This second phase, which is also referred to as the trigger or “challenge,” ends in an eczematous lesion on the second contact site. The evaluation of the extent of the inflammatory reaction or the success of treatment is performed routinely 24 hours after the triggering, since at this time, the parameters that are to be analyzed (ear thickness and cell infiltration as a yardstick for the edema) have reached a plateau. The model of the DNFB-induced contact allergy allows the examination of the action of systemically or topically administered test substances with immunosuppressive/immunomodulating or inflammation-inhibiting properties. In the study on immunomodulating properties of calcitriol derivatives, the latter are administered once daily intragastrically in physiological common salt solution (0.9% NaCl) with an admixture of 0.085% Myrj 53) around the time of sensitization (beginning two days before and one day before sensitization, on the day of sensitization and on day 1 and 2 after sensitization). As side-effect parameters that are typical of vitamin D, the determination of the calcium level in the urine of the treated animals is used at the latest 24 hours after the last treatment with the substance. The calcium content is determined by flame-photometry. The significance of differences occurring between substance groups and controls as well as between test substance and reference substance are supported with suitable statistic processes. The therapeutic range of the test substances and calcitriol as a reference substance is indicated as a dose ratio DR (DR=factor of hypercalcemic threshold dose/immunosuppressive threshold dose).

[4] = target: T1, vitamin D receptor (Sus scrofa, UniProt A3RGC1); experiment: calcitriol-receptor test (competition with 3H-calcitriol, protein extract from intestines of juvenile pigs); conditions: for KF (competition factor: concentration of test substance / reference substance at 50% competition): relative to unlabeled calcitriol, 3H-calcitriol 5x10^-10 mol/l, 2 hours at 4° C; for activity in vitro: result in words, summary of the in vitro tests of the table (calcitriol-receptor test and HL 60)
T1 sequence (A3RGC1 1-427): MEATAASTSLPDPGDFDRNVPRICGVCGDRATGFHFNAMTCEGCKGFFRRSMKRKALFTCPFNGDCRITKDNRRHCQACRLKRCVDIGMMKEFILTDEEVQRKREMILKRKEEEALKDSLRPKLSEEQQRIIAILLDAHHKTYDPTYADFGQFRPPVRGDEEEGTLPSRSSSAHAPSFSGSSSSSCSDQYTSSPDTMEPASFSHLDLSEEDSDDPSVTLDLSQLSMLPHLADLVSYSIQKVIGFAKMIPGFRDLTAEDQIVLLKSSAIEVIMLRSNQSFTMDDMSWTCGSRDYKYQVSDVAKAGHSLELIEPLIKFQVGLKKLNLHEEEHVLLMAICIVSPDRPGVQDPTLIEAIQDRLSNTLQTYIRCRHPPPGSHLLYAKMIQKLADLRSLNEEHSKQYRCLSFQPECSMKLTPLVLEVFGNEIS
Protocol: It is carried out using a protein extract from the intestines of juvenile pigs. […] To this end, 250 il of a charcoal-dextran suspension is fed to each test tube and incubated at 4° C. for 20 minutes. Then, the samples are centrifuged at 10,000 g for 5 minutes at 4° C. The supernatant is decanted and measured in a á-counter after 1 hour of equilibration in Picofluor 15™.
The competition curves that are obtained at various concentrations of test substance as well as of reference substance (unlabeled calcitriol) at constant concentration of the reference substance (^3H-calcitriol) are placed in relation to one another, and a competition factor (KF) is determined.
It is defined as a quotient of the concentrations of the respective test substance and the reference substance, which are necessary for 50% competition:
KF=Concentration of test substance at 50% competition
Concentration of reference substance at 50% competition

DR (Ca) (dose ratio for hypercalcemia, test substance dose/reference substance dose for comparable actions) [2] | KF (competition factor: concentration of test substance / reference substance at 50% competition) [4] | SMILES | DR (HL 60) (dose ratio test substance/reference substance for comparable semi-maximum actions) [1] | activity in vivo (prevention of the formation of edemas) ([3]; result in words) | activity in vitro [4] | therapeutic range (immunosuppressive threshold dose versus hypercalcemic threshold dose) ([3]; result in words, relative to compounds that have free hydroxy groups in the side chain) | DR (Hypercalcemic threshold dose/ immunosuppressive threshold dose) [3]
300 | 2 | C=C1/C(=C\C=C2/CCC[C@]3(C)[C@@H]([C@H](C)/C=C/[C@@H](O)C4(c5ncc(CCC)o5)CC4)CC[C@@H]23)C[C@@H](O)C[C@@H]1O [A, (5Z,7E,22E)-(1S,3R,24R)-25-(5-Propyloxazole-2-yl)-26,27-cyclo-9,10-secocholesta-5,7,10(19),22-tetraene-1,3,24-triol] | 1.9 | – | – | – | –
– | – | C=C1/C(=C\C=C2/CCC[C@]3(C)[C@@H]([C@H](C)CC[C@@H](OC(=O)NC)C4(c5ncc(CCCC)o5)CC4)CC[C@@H]23)C[C@@H](O)C[C@@H]1O [Compound 11b, (5Z,7E)-(1S,3R,24R)-25-(5-Butyloxazole-2-yl)-24-[[(methylamino)-carbonyl]oxy]-26,27-cyclo-9,10-secocholesta-5,7,10(19)-triene-1,3-diol] | – | – | – | clearly improved | –
>300 | 2 | C=C1/C(=C\C=C2/CCC[C@]3(C)[C@@H]([C@H](C)/C=C/[C@@H](O)C4(c5ncc(C)o5)CC4)CC[C@@H]23)C[C@@H](O)C[C@@H]1O [B, (5Z,7E,22E)-(1S,3R,24R)-25-(5-Methyloxazole-2-yl)-26,27-cyclo-9,10-secocholesta-5,7,10(19),22-tetraene-1,3,24-triol] | 3.4 | – | – | – | –
>1000 | >100 | C=C1/C(=C\C=C2/CCC[C@]3(C)[C@@H]([C@H](C)CC[C@@H](OC(=O)C(C)(C)C)C4(c5ncc(CCCC)o5)CC4)CC[C@@H]23)C[C@@H](O)C[C@@H]1O [Compound 5b] | >170 | therapeutically active in vivo | inactivity; also recorded: deficient activity | – | 20,000
– | – | C=C1C(=CC=C2CCCC3(C)C2CCC3C(C)C=CC(O)C2(c3ncc(CCCC)o3)CC2)CC(O)CC1O [(5Z,7E,22E)-(1S,3R,24R)-25-(5-butyloxazole-2-yl)-26,27-cyclo-9,10-secocholesta-5,7,10(19),22-tetraene-1,3,24-triol, reference compound] | – | – | – | – | 1,000
1 | – | C=C1/C(=C\C=C2/CCC[C@]3(C)[C@@H]([C@H](C)CCCC(C)(C)O)CC[C@@H]23)C[C@@H](O)C[C@@H]1O [Calcitriol, 1,25-dihydroxy vitamin D3] | 1 | – | – | – | 1
>300 | 3 | C=C1C(=CC=C2CCCC3(C)C2CCC3C(C)C=CC(O)C2(c3ncc(CC)o3)CC2)CC(O)CC1O [C, (5Z,7E,22E)-(1S,3R,24R)-25-(5-Ethyloxazole-2-yl)-26,27-cyclo-9,10-secocholesta-5,7,10(19),22-tetraene-1,3,24-triol] | 1.3 | – | – | – | –
>300 | 4 | C=C1/C(=C\C=C2/CCC[C@]3(C)[C@@H]([C@H](C)/C=C/[C@@H](O)C4(c5ncc(CCCCC)o5)CC4)CC[C@@H]23)C[C@@H](O)C[C@@H]1O [D, (5Z,7E,22E)-(1S,3R,24R)-25-(5-Pentyloxazole-2-yl)-26,27-cyclo-9,10-secocholesta-5,7,10(19),22-tetraene-1,3,24-triol] | >100 | – | – | – | –

SMILES | DR (Ca) (dose ratio for hypercalcemia, test substance dose/reference substance dose for comparable actions) [2] | KF (competition factor: concentration of test substance / reference substance at 50% competition) [4] | DR (HL 60) (dose ratio test substance/reference substance for comparable semi-maximum actions) [1] | activity in vivo (prevention of the formation of edemas) ([3]; result in words) | activity in vitro [4] | therapeutic range (immunosuppressive threshold dose versus hypercalcemic threshold dose) ([3]; result in words, relative to compounds that have free hydroxy groups in the side chain) | DR (Hypercalcemic threshold dose/ immunosuppressive threshold dose) [3]
C=C1/C(=C\C=C2/CCC[C@]3(C)[C@@H]([C@H](C)CC[C@@H](OC(C)=O)C4(c5ncc(CCCC)o5)CC4)CC[C@@H]23)C[C@@H](O)C[C@@H]1O [Compound 3b, (5Z,7E)-(1S,3R,24R)-24-(Acetoxy)-25-(5-butyloxazole-2-yl)-26,27-cyclo-9,10-secocholesta-5,7,10(19)-triene-1,3-diol] | >1000 | >100 | >170 | therapeutically active in vivo | inactivity; also recorded: deficient activity | – | –
C=C1/C(=C\C=C2/CCC[C@]3(C)[C@@H]([C@H](C)CC[C@H](OC(C)=O)C4(c5ncc(CCCC)o5)CC4)CC[C@@H]23)C[C@@H](O)C[C@@H]1O [Compound 3a, (5Z,7E)-(1S,3R,24S)-24-Acetoxy-25-(5-butyloxazole-2-yl)-26,27-cyclo-9,10-secocholesta-5,7,10(19)-triene-1,3-diol] | >1000 | >100 | >170 | therapeutically active in vivo | inactivity; also recorded: deficient activity | – | –
